Our source for the GI50 and IC (TGI) values is US20160095843A1, “PYRAZOLOPYRROLIDINE DERIVATIVES AND THEIR USE IN THE TREATMENT OF DISEASE” (NOVARTIS AG, priority 2013, published 2016).

Bounds are passed on as bounds.

The subject of test [1] is MV-4-11 cells. The test is described as follows: Cell growth inhibition assay (CellTiter-Glo), MV-4-11. It is filed as cell-based. Conditions: Homo sapiens, MV4-11. The procedure:
(§1) Cell Growth Inhibition Assay
(§2) The human leukemia cell lines MV-4-11, THP-1 and K-562 were employed to characterize the effect of BET inhibitors on cellular proliferation and viability. Cells were obtained from the American Type Culture Collection (ATCC) and cultured at 37° C. in a humidified 5% CO2 incubator in the following media: MV-4-11: DMEM high glucose (Animed #1-26F01-I), 10% FCS (Animed #2-01F26-I), 4 mM L-Glutamine (Animed #5-10K50), 1 mM Sodium Pyruvate (Animed # G03625P), 1× Penicillin-Streptomycin (Animed # F12478P); K-562: Iscove's MEM (Animed #1-28F16-I), 10% FCS (Animed #2-01F26-I), 4 mM L-Glutamine (Animed #5-10K50), 1× Penicillin-Streptomycin (Animed # F12478P); THP-1: RPMI-1640 (Animed #1-41F01-I), 10% FCS (Animed #2-01F26-I), 2 mM L-Glutamine (Animed #5-10K50), 10 mM HEPES (Animed #5-31F100), 1 mM Sodium Pyruvate (Animed # G03625P), 1× Penicillin-Streptomycin (Animed # F12478P). The AML lines MV-4-11 and THP-1 are very sensitive to BET inhibitors and show massive cell death upon BET inhibition (Zuber et al., Nature, 478 (2011), 524-8). Compound-mediated suppression of cell proliferation/viability was assessed by quantification of cellular ATP levels using the CellTiter-Glo (CTG) reagent (Promega). Briefly, cells were seeded in 20 μl fresh medium into 384-well plates, followed by addition of 5 μL medium containing compound dilutions at 5-fold their final intended concentration. Dose-response effects were assessed by 3-fold serial dilutions of the test compound, starting at 10 μM. Following incubation of the cells for 4 days at 37° C. and 5% CO2, the effect of inhibitors on cell viability was quantified following addition of 20 μl CTG and luminescence quantification (integration time: 100 ms) as per vendor manual, using a correspondingly equipped Tecan M200 multi-mode platereader (TECAN, Switzerland). For data analysis, the assay background value determined in wells containing medium, but no cells, was subtracted from all data points. To enable differentiation of cytotoxic from cytostatic compounds, the number of viable cells is assessed relative to that observed at the time of compound addition using a separate cell plate (day 0). The effect of a particular test compound concentration on cell proliferation/viability is expressed as percentage of the background- and day 0-corrected luminescence reading obtained for cells treated with vehicle only (DMSO, 0.1% final concentration), which is set as 100%, whereas that luminescence reading for wells containing medium is set as −100%. Compound concentrations leading to half-maximal (1050) and total growth inhibition (TGI) were determined using standard four parameter curve fitting.
For orientation: ATP-based viability assays read luminescence as a measure of living cells.

The subject of test [2] is THP-1 cells. In words: Cell growth inhibition assay (CellTiter-Glo), THP-1. Conditions: Homo sapiens. It is filed as cell-based. The procedure: as §1, §2
Test [3] relates to K-562 cells. In words: Cell growth inhibition assay (CellTiter-Glo), K-562. It counts as cell-based, human. As to conditions: for GI50: Homo sapiens, K562. The procedure: as §1, §2

In general, GI50 refers to the concentration giving 50% growth inhibition. A higher GI50 goes with less potent growth inhibition.

Regarding `CCc1c2c(nn1C(=O)N(C)C)C(=O)N(c1cc(C)c(=O)n(C)c1)C2c1ccc(Cl)cc1` (stereo not drawn) [Example 148, 4-(4-chlorophenyl)-5-(1,5-dimethyl-6-oxo-1,6-dihydropyridin-3-yl)-3-ethyl-N,N-dimethyl-6-oxo-5,6-dihydropyrrolo-[3,4-c]pyrazole-2(4H)-carboxamide], the GI50 in test [1] was found to be 81.7 nM; in test [2], 157 nM; in test [3] it was 1130 nM.

As to `COc1ncc(-n2nc(C)c3c2C(=O)N(c2cc(Cl)c(=O)n(C)c2)C3c2ccc(Cl)cc2)c(OC)n1` (stereo not drawn) [Example 53, 5-(5-chloro-1-methyl-6-oxo-1,6-dihydropyridin-3-yl)-4-(4-chlorophenyl)-1-(2,4-dimethoxypyrimidin-5-yl)-3-methyl-4,5-dihydropyrrolo[3,4-c]pyrazol-6(1H)-one], the GI50 is 249 nM in test [1], 374 nM in test [2] and 953 nM in test [3].

Consider `CCn1nc2c(c1C)C(c1ccc(Cl)cc1F)N(c1cc(C)c(=O)n(C)c1)C2=O` (stereo not drawn) [Example 171, 4-(4-chloro-2-fluorophenyl)-5-(1,5-dimethyl-6-oxo-1,6-dihydropyridin-3-yl)-2-ethyl-3-methyl-4,5-dihydropyrrolo[3,4-c]pyrazol-6(2H)-one], for which the figures for the GI50 in test [1], in test [2] and in test [3] were 93.8 nM, 118 nM and 442 nM, respectively.

Regarding `COc1c2c(nn1C)C(=O)N(c1cc(C)c(=O)n(C)c1)C2c1ccc(Cl)cc1` (stereo not drawn) [Example 77, 4-(4-chlorophenyl)-5-(1,5-dimethyl-6-oxo-1,6-dihydropyridin-3-yl)-3-methoxy-2-methyl-4,5-dihydropyrrolo-[3,4-c]pyrazol-6(2H)-one], the results for the GI50 in test [1], in test [2] and in test [3] were 88.8 nM, 178 nM and 569 nM, respectively.

Turning to `COc1ccccc1-n1nc(C)c2c1C(=O)N(c1cc(C)c3nnc(C)n3c1)C2c1ccc(Cl)cc1F` (stereo not drawn) [Example 187, 4-(4-chloro-2-fluorophenyl)-5-(3,8-dimethyl-[1,2,4]triazolo[4,3-a]pyridin-6-yl)-1-(2-methoxyphenyl)-3-methyl-4,5-dihydropyrrolo-[3,4-c]pyrazol-6(1H)-one], the GI50 in test [1] worked out at 144 nM; in test [2] it was 168 nM; in test [3], 655 nM.

Turning to `CCn1nc(C)c2c1C(=O)N(c1cc(C)c(=O)n(C)c1)C2c1ccc(Cl)cc1F` (stereo not drawn) [Example 170, 4-(4-chloro-2-fluorophenyl)-5-(1,5-dimethyl-6-oxo-1,6-dihydropyridin-3-yl)-1-ethyl-3-methyl-4,5-dihydropyrrolo-[3,4-c]pyrazol-6(1H)-one], the GI50 came out at 7.66 nM in test [1], 13.4 nM in test [2] and 48.5 nM in test [3].

`Cc1nn(C2CN(C)C2)c2c1C(c1ccc(Cl)cc1)N(c1cc(C)c3nnc(C)n3c1)C2=O` (stereo not drawn) [Example 157, 4-(4-chlorophenyl)-5-(3,8-dimethyl-[1,2,4]triazolo[4,3-a]pyridin-6-yl)-3-methyl-1-(1-methylazetidin-3-yl)-4,5-dihydropyrrolo[3,4-c]pyrazol-6(1H)-one]: the GI50 in test [1] was 50 nM; in test [2] it was 158 nM; in test [3], 534 nM.

For `Cc1nn(C(C)C)c2c1C(c1ccc(Cl)cc1)N(c1cc(Cl)c(=O)n(C)c1)C2=O` (stereo not drawn) [Example 66, 5-(5-chloro-1-methyl-6-oxo-1,6-dihydropyridin-3-yl)-4-(4-chlorophenyl)-1-isopropyl-3-methyl-4,5-dihydropyrrolo-[3,4-c]pyrazol-6(1H)-one], the GI50 worked out at 67.7 nM in test [1], 126 nM in test [2] and 908 nM in test [3].

Take `Cc1nn(-c2ccnn2C)c2c1[C@@H](c1ccc(Cl)cc1)N(c1cc(C)c3nnc(C)n3c1)C2=O` [Example 125, (R)-4-(4-chlorophenyl)-5-(3,8-dimethyl-[1,2,4]triazolo[4,3-a]pyridin-6-yl)-3-methyl-1-(1-methyl-1H-pyrazol-5-yl)-4,5-dihydropyrrolo[3,4-c]pyrazol-6(1H)-one]: the GI50 in test [1] is 18.7 nM; in test [2], 25.8 nM; in test [3], 101 nM. In test [3], this compound registered an IC (TGI) greater than 10000 nM.

Consider `Cc1cc(N2C(=O)c3c(c(CF)nn3C3CC3)C2c2ccc(Cl)cc2)cn2c(C)nnc12` (stereo not drawn) [Example 159, 4-(4-chlorophenyl)-1-cyclopropyl-5-(3,8-dimethyl-[1,2,4]triazolo[4,3-a]pyridin-6-yl)-3-(fluoromethyl)-4,5-dihydropyrrolo[3,4-c]pyrazol-6(1H)-one], for which the figures for the GI50 in test [1], in test [2] and in test [3] were 40 nM, 36.9 nM and 116 nM, respectively.

In the case of `CCOc1c2c(nn1C)C(=O)N(c1cc(C)c(=O)n(C)c1)C2c1ccc(Cl)cc1` (stereo not drawn) [Example 76, 4-(4-chlorophenyl)-5-(1,5-dimethyl-6-oxo-1,6-dihydropyridin-3-yl)-3-ethoxy-2-methyl-4,5-dihydropyrrolo-[3,4-c]pyrazol-6(2H)-one], the GI50 in test [1] was 53.2 nM; in test [2] it was 140 nM; in test [3] it was 339 nM.

Consider `CCn1nc2c(c1C)C(c1ccc(Cl)cc1F)N(c1cc(C)c3nnc(C)n3c1)C2=O` (stereo not drawn) [Example 186, 4-(4-chloro-2-fluorophenyl)-5-(3,8-dimethyl-[1,2,4]triazolo[4,3-a]pyridin-6-yl)-2-ethyl-3-methyl-4,5-dihydropyrrolo-[3,4-c]pyrazol-6(2H)-one], for which the GI50 in test [1] came to 44.1 nM; in test [2], 61.5 nM; in test [3] it was 208 nM.

Consider `Cc1c2c(nn1C1CC1)C(=O)N(c1cc(Cl)c(=O)n(C)c1)[C@@H]2c1ccc(Cl)cc1` [Example 19, (R)-5-(5-chloro-1-methyl-6-oxo-1,6-dihydropyridin-3-yl)-4-(4-chlorophenyl)-2-cyclopropyl-3-methyl-4,5-dihydropyrrolo-[3,4-c]pyrazol-6(2H)-one], for which the values for the GI50 in test [1], in test [2] and in test [3] were 25.8 nM, 74.6 nM and 242 nM, respectively. This compound also came in with an IC (TGI) in test [3] greater than 10000 nM.

Regarding `Cc1nn(C2CC2)c2c1C(c1ccc(Cl)cc1)N(c1cn(C)c(=O)c3[nH]ccc13)C2=O` (stereo not drawn) [Example 160, 4-(4-(4-chlorophenyl)-1-cyclopropyl-3-methyl-6-oxopyrrolo-[3,4-c]pyrazol-5(1H,4H,6H)-yl)-6-methyl-1H-pyrrolo[2,3-c]pyridin-7(6H)-one], the GI50 in test [1] was 66.2 nM; in test [2], 56.1 nM; in test [3], 426 nM.

As to `Cc1nn(C2CC2)c2c1[C@H](c1ccc(Cl)cc1)N(c1cc(C)c3nnc(C)n3n1)C2=O` [Example 123, (S)-4-(4-chlorophenyl)-1-cyclopropyl-5-(3,8-dimethyl-[1,2,4]triazolo[4,3-b]pyridazin-6-yl)-3-methyl-4,5-dihydropyrrolo-[3,4-c]pyrazol-6(1H)-one], the GI50 in test [1] was determined as 2870 nM; in test [2], 5880 nM; in test [3] it was 9400 nM.

Regarding `CCc1nn(C2CC2)c2c1[C@H](c1ccc(Cl)cc1)N(c1cc(C)c3nnc(C)n3c1)C2=O` [Example 106, (S)-4-(4-chlorophenyl)-1-cyclopropyl-5-(3,8-dimethyl-[1,2,4]triazolo[4,3-a]pyridin-6-yl)-3-ethyl-4,5-dihydropyrrolo-[3,4-c]pyrazol-6(1H)-one], the GI50 in test [1] came out at 649 nM; in test [2], 2110 nM; in test [3], 4060 nM. The compound also returned an IC (TGI) in test [3] greater than 10000 nM.

With `Cc1nn(C(=O)N(C)C)c2c1C(c1ccc(Cl)cc1)N(c1cc(C)c(=O)n(C)c1)C2=O` (stereo not drawn) [Example 142], the GI50 in test [1] turned out to be 79.3 nM; in test [2], 239 nM; in test [3] it was 712 nM.
